Where two headings read alike, the source gives them in different places.

This experiment has as its system α7 integrin (LacZ reporter in α7LacZ+/− myoblasts). Kind of experiment: qHTS of the LOPAC library and MLSMR (online screen, α7LacZ+/− myoblasts). The note with it: for activation at 0.307 µM / activation at 1.53 µM / activation at 7.66 µM / activation at 38.3 µM / Emax / EC50: Mus musculus, Myoblast; for activation at 0.307 µM: read-out: Activity at 0.307 uM [%] **; for activation at 1.53 µM: read-out: Activity at 1.530 uM [%] **; for activation at 7.66 µM: read-out: Activity at 7.660 uM [%] **; for activation at 38.3 µM: read-out: Activity at 38.30uM [%] **; for EC50: read-out: Fit LogAC50 (converted). In general terms: Quantitative high-throughput screening tests each substance at several concentrations.

[1] abbreviates: 48 h, read-out: Fit Infinite Activity [%].

As for `Cc1ccc(-c2csc(Nc3ccc(C(=O)O)cc3)[n+]2Cc2ccccc2)cc1` [Compound 126], where the note is “48 h”, the activation at 0.307 µM was 5.18%, the activation at 1.53 µM is 19%, the activation at 7.66 µM was 58.1% and the activation at 38.3 µM came out at 102%. In addition, the Emax under setting [1] is 125%. Besides, the Emax (read-out: Max Response [%]) turned out to be 102%.

`CCCN1C2CCCC1CC(NC(=O)c1cccc([N+](=O)[O-])c1)C2` (stereo not shown) [Compound 164]: the “Curve Description” value was “Partial”, the Score worked out at 42 and the EC50 was 10 µM. Moreover, under “48 h”, the activation at 0.307 µM turned out to be 1.16%, the activation at 1.53 µM is 0.0123%, the activation at 7.66 µM was found to be 22% and the activation at 38.3 µM amounted to 91.6%. In addition, under setting [1], the Emax worked out at 91.8%. The Emax (read-out: Max Response [%]) was found to be 91.6%.

Take `COc1cc(C(C(=O)NC2CCCCC2)N(C(=O)c2snc(C(N)=O)c2N)c2ccc(C)cc2)ccc1O` (stereo not shown) [Compound 71]: the EC50 was 7.94 µM. In addition, under “48 h”, the activation at 0.307 µM was 0%, the activation at 1.53 µM was determined as 9.63%, the activation at 7.66 µM was 58.8% and the activation at 38.3 µM is 109%. Further, the Emax under setting [1] is 122%. The Emax (read-out: Max Response [%]) amounted to 109%.

On to `COC(=O)c1ccc(C2C(C(=O)c3cc4ccccc4o3)=C(O)C(=O)N2CCN2CCOCC2)cc1` (stereo not shown) [Compound 141], for which the EC50 was 10 µM. Where the note is “48 h”, the activation at 0.307 µM was -17.2%, the activation at 1.53 µM is -18.3%, the activation at 7.66 µM turned out to be 2.6% and the activation at 38.3 µM came to 82.7%. The Emax under setting [1] came to 82.8%. For the same compound, the Emax (read-out: Max Response [%]) amounted to 82.7%.

Regarding `CN(C)S(=O)(=O)c1cccc(C(=O)Nc2ccc3c(c2)CCC3)c1` [Compound 8], the EC50 was 2.82 µM. For the setting “48 h”, the activation at 0.307 µM is -15.4%, the activation at 1.53 µM is -10.6%, the activation at 7.66 µM worked out at 96.4% and the activation at 38.3 µM is 94.3%. Further, the Emax under setting [1] came to 96%.

`O=[N+]([O-])c1cccc(S(=O)(=O)N2CCN(S(=O)(=O)N3CCOCC3)CC2)c1` [Compound 158]: the EC50 is 10 µM. For the setting “48 h”, the activation at 0.307 µM worked out at 0.67%, the activation at 1.53 µM was determined as 0.634%, the activation at 7.66 µM came to 26.3% and the activation at 38.3 µM was determined as 65.9%. Also, the Emax under setting [1] worked out at 70.7%. Further, the Emax (read-out: Max Response [%]) came to 65.9%.

With `Cc1cc(-c2ccccc2)n2nc(N)nc2n1` [Compound 127], under “48 h”, the activation at 0.307 µM is -20%, the activation at 1.53 µM is -16.1%, the activation at 7.66 µM is -2.95% and the activation at 38.3 µM worked out at 151%. For the same compound, the Emax under setting [1] stood at 152%. Under “read-out: Max Response [%]”, the Emax stood at 151%.

As to `Cn1c(=O)c2c(nc(Sc3ncnn3CC(=O)NC3CCCCC3)n2C)n(C)c1=O` [Compound 201], where the note is “48 h”, the activation at 0.307 µM is -21.5%, the activation at 1.53 µM is -17.1%, the activation at 7.66 µM stood at 8.09% and the activation at 38.3 µM was 69.8%. Besides, the Emax under setting [1] was 74.9%. The Emax (read-out: Max Response [%]) is 69.8%.

For the compound `COc1ccc(O)c(/C=N/NC(=O)c2cc(O)nc3ccccc23)c1` [Compound 179], under “48 h”, the activation at 0.307 µM was -35.4%, the activation at 1.53 µM was -32.2%, the activation at 7.66 µM came out at 20.9% and the activation at 38.3 µM was 46.8%. Moreover, under setting [1], the Emax worked out at 48.4%. Also, the Emax (read-out: Max Response [%]) amounted to 46.8%.

Regarding `COCCSc1ccccc1C(=O)Nc1cc(C)cc(C)c1` [Compound 22], the EC50 is 4.47 µM. Also, where the note is “48 h”, the activation at 0.307 µM was determined as 0%, the activation at 1.53 µM turned out to be 0%, the activation at 7.66 µM came to 78.3% and the activation at 38.3 µM stood at 82.9%. Besides, the Emax under setting [1] came to 83.1%.

With `COc1ccc(-c2cc(COc3ccccc3)on2)cc1` [Compound 188], the EC50 is 10 µM. Further, for the setting “48 h”, the activation at 0.307 µM was 0%, the activation at 1.53 µM was determined as 0.795%, the activation at 7.66 µM was determined as 20% and the activation at 38.3 µM stood at 88.1%. For the same compound, the Emax under setting [1] turned out to be 88.2%. Besides, the Emax (read-out: Max Response [%]) was found to be 88.1%.

On to `COc1ccccc1CNc1cc(C)ccn1` [Compound 31], for which the EC50 was 2.51 µM. For the same compound, for the setting “48 h”, the activation at 0.307 µM was -22.9%, the activation at 1.53 µM was -0.943%, the activation at 7.66 µM amounted to 53.2% and the activation at 38.3 µM is 62.3%. Moreover, the Emax under setting [1] turned out to be 62.2%.

As for `CCCS(=O)(=O)N1CCCC(C(=O)c2cccc(Cl)c2)C1` (stereo not shown) [Compound 84], the EC50 is 6.31 µM. Under “48 h”, the activation at 0.307 µM was -5.29%, the activation at 1.53 µM was 11%, the activation at 7.66 µM came to 59.7% and the activation at 38.3 µM was 102%. For the same compound, under setting [1], the Emax was 114%. The Emax (read-out: Max Response [%]) amounted to 102%.

`COc1cc2c(cc1OC)C(NC(=O)C(F)(F)F)C/C2=N\O` (stereo not shown) [Compound 193]: under “48 h”, the activation at 0.307 µM came to 3.74%, the activation at 1.53 µM is 2%, the activation at 7.66 µM was determined as 17.9% and the activation at 38.3 µM is 91.5%. Also, the Emax under setting [1] worked out at 92.3%. Moreover, the Emax (read-out: Max Response [%]) came out at 91.5%.

Take `CC(C)N(CCO)C(=O)CCc1nnc(CCCc2ccccc2)o1` [Compound 199]: where the note is “48 h”, the activation at 0.307 µM stood at 0%, the activation at 1.53 µM is 7.61%, the activation at 7.66 µM amounted to 32.2% and the activation at 38.3 µM is 78.1%. Also, under setting [1], the Emax was 96.2%. For the same compound, the Emax (read-out: Max Response [%]) came to 78.1%.

As for `CC(C)c1ccc(NC(=O)CN2C(=O)c3ccccc3S2(=O)=O)cc1` [Compound 150], the EC50 was 10 µM. Further, under “48 h”, the activation at 0.307 µM was determined as 0%, the activation at 1.53 µM stood at 0.16%, the activation at 7.66 µM was 15.1% and the activation at 38.3 µM was 67.1%. For the same compound, the Emax under setting [1] amounted to 67.4%. The Emax (read-out: Max Response [%]) was 67.1%.

For the compound `Cc1nc2c([nH]1)OC(N)=C(C#N)C21CCN(Cc2ccccc2)CC1` [Compound 132], the “Curve Description” value is reported as “Partial”. Besides, under “48 h”, the activation at 0.307 µM worked out at 11.1%, the activation at 1.53 µM was determined as 13.8%, the activation at 7.66 µM was found to be 23% and the activation at 38.3 µM came out at 133%. In addition, the Emax under setting [1] was found to be 133%. Under “read-out: Max Response [%]”, the Emax was 133%.

`CCCOc1nc(SCCC)nc2c1cnn2-c1ccccc1` [Compound 178]: for the setting “48 h”, the activation at 0.307 µM is -21.2%, the activation at 1.53 µM was -11.3%, the activation at 7.66 µM is 18.9% and the activation at 38.3 µM came to 64.3%. Under setting [1], the Emax was determined as 85.3%. For the same compound, the Emax (read-out: Max Response [%]) was determined as 64.3%.

With `O=S(=O)(NCC(c1ccco1)N1CCOCC1)c1ccc(Cl)cc1` (stereo not shown) [Compound 212], for the setting “48 h”, the activation at 0.307 µM was 11.1%, the activation at 1.53 µM was 7.37%, the activation at 7.66 µM was determined as 15.9% and the activation at 38.3 µM worked out at 128%. For the same compound, the Emax under setting [1] is 129%. Further, the Emax (read-out: Max Response [%]) stood at 128%.

Consider `CC(=O)c1cccc(NC(=O)C(=O)Nc2cccc3ccccc23)c1` [Compound 197], for which, under “48 h”, the activation at 0.307 µM was found to be 5.25%, the activation at 1.53 µM was 15.7%, the activation at 7.66 µM was 40.8% and the activation at 38.3 µM is 66.9%. Further, under setting [1], the Emax was 84.7%. Besides, the Emax (read-out: Max Response [%]) stood at 66.9%.

For the compound `COc1ccc(Cl)cc1NC(=O)CC(=O)Nc1cc(Cl)ccc1OC` [Compound 41], the EC50 is 14.1 µM. Further, where the note is “48 h”, the activation at 0.307 µM came to 8.75%, the activation at 1.53 µM was 9.71%, the activation at 7.66 µM was 34.1% and the activation at 38.3 µM was determined as 453%. Moreover, the Emax under setting [1] came out at 457%.

As to `CCC(CC)C(=O)Nc1c(C(=O)N2CCN(c3ccccc3)CC2)oc2ccccc12` [Compound 73], the EC50 was 12.6 µM. Where the note is “48 h”, the activation at 0.307 µM was found to be 13.5%, the activation at 1.53 µM was determined as 18.6%, the activation at 7.66 µM amounted to 35.7% and the activation at 38.3 µM turned out to be 185%. The Emax under setting [1] amounted to 187%. For the same compound, where the note is “read-out: Max Response [%]”, the Emax came out at 185%.

For the compound `Cc1cccn2c(=O)c3cc(C(=O)NC4CCCCC4)n(C)c3nc12` [Compound 40], the EC50 was 14.1 µM. Under “48 h”, the activation at 0.307 µM is -13.7%, the activation at 1.53 µM turned out to be 5.58%, the activation at 7.66 µM was 25.2% and the activation at 38.3 µM was 427%. In addition, under setting [1], the Emax stood at 433%.

On to `NC(=O)c1cccnc1Oc1ccc(Cl)cc1Cl` [Compound 113], for which the EC50 is 10 µM. Further, under “48 h”, the activation at 0.307 µM is -4.94%, the activation at 1.53 µM was -7.73%, the activation at 7.66 µM was 23.5% and the activation at 38.3 µM is 105%. The Emax under setting [1] worked out at 106%. The Emax (read-out: Max Response [%]) is 105%.

For `Cc1nnc(NC(=O)CSc2nnc(CCNC(=O)c3ccccc3F)n2C)s1` [Compound 147], where the note is “48 h”, the activation at 0.307 µM stood at 0.45%, the activation at 1.53 µM turned out to be 2.7%, the activation at 7.66 µM worked out at 29.1% and the activation at 38.3 µM worked out at 84.9%. The Emax under setting [1] was 91.2%. Also, the Emax (read-out: Max Response [%]) amounted to 84.9%.

As for `COc1ccc(C(=O)N/C(=C/c2cccnc2)C(=O)N2CCN(C)CC2)cc1OC` [Compound 92], the EC50 was 4.47 µM. In addition, for the setting “48 h”, the activation at 0.307 µM was determined as 2.57%, the activation at 1.53 µM came out at 13.3%, the activation at 7.66 µM was 54.9% and the activation at 38.3 µM is 75%. Further, under setting [1], the Emax was found to be 77%. For the same compound, the Emax (read-out: Max Response [%]) worked out at 75%.

Take `Cc1cc(OCC(=O)NC(C)C)ccc1Cl` [Compound 11]: the EC50 is 3.98 µM. Moreover, where the note is “48 h”, the activation at 0.307 µM was 0%, the activation at 1.53 µM was found to be 7.6%, the activation at 7.66 µM amounted to 83.9% and the activation at 38.3 µM came to 102%. Besides, the Emax under setting [1] is 101%.
